# Laboratory results reported in publication PMC10252614 (International Journal of Molecular Sciences, 2023).
# “Also recorded” adds a separate entry of the source.
# Target: T1, hMAO-A (Homo sapiens, UniProt P21397)
# T1 construct: purchased Merck (Prague, Czech Republic)
# T1 sequence (P21397 1-527): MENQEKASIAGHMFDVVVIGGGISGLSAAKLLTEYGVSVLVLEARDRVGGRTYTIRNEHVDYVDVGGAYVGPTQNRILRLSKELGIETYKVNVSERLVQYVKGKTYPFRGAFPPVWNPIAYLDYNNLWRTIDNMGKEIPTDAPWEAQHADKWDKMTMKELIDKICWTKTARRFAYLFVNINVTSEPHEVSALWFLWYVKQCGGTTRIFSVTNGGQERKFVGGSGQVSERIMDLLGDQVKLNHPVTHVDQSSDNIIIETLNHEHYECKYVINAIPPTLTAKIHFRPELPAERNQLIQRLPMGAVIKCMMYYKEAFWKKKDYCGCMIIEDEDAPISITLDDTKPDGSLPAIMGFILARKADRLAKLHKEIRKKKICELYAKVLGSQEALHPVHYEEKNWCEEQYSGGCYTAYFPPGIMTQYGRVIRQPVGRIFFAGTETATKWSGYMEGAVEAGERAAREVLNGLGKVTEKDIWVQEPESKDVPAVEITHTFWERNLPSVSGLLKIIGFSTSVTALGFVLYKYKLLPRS
# Assay: in vitro inhibition of hMAO-A, kynuramine fluorescence assay
# Type: biochemical
# Conditions: not given
# Description: The hMAO-A and hMAO-B enzymes were purchased from Merck (Prague, Czech Republic). […] The mixture was pre-incubated at 37 °C for 15 min and subsequently substrate kynuramine was added to the final concentration of 100 µM. The final volume of reaction mixture was 0.1 mL. The whole reaction mixture was incubated at 37 °C for 30 min. The reaction was stopped by the addition of 20 µL 4M NaOH.
row,Structure (SMILES),IC50
1,"C#CCN(C)c1nc(NCCCC)c2ccccc2n1 [I-6e, N4-butyl-N2-methyl-N2-(prop-2-yn-1-yl)quinazoline-2,4-diamine]",2600 ± 230 nM
2,"C#CCN(C)c1nc(NC2CCCCC2)c2ccccc2n1 [I-6h, N4-cyclohexyl-N2-methyl-N2-(prop-2-yn-1-yl)quinazoline-2,4-diamine]",900 ± 170 nM
3,"C#CCN(C)c1nc(N)c2cc(OC)ccc2n1 [III-6a, 6-methoxy-N2-methyl-N2-(prop-2-yn-1-yl)quinazoline-2,4-diamine]",620 ± 40 nM

# Target: T2, GluN1/GluN2B receptor (Homo sapiens, UniProt Q05586+Q13224)
# T2 construct: expressed in transfected cells; host or cells: HEK293
# T2 sequence (Q13224 27-1484, other chains not shown): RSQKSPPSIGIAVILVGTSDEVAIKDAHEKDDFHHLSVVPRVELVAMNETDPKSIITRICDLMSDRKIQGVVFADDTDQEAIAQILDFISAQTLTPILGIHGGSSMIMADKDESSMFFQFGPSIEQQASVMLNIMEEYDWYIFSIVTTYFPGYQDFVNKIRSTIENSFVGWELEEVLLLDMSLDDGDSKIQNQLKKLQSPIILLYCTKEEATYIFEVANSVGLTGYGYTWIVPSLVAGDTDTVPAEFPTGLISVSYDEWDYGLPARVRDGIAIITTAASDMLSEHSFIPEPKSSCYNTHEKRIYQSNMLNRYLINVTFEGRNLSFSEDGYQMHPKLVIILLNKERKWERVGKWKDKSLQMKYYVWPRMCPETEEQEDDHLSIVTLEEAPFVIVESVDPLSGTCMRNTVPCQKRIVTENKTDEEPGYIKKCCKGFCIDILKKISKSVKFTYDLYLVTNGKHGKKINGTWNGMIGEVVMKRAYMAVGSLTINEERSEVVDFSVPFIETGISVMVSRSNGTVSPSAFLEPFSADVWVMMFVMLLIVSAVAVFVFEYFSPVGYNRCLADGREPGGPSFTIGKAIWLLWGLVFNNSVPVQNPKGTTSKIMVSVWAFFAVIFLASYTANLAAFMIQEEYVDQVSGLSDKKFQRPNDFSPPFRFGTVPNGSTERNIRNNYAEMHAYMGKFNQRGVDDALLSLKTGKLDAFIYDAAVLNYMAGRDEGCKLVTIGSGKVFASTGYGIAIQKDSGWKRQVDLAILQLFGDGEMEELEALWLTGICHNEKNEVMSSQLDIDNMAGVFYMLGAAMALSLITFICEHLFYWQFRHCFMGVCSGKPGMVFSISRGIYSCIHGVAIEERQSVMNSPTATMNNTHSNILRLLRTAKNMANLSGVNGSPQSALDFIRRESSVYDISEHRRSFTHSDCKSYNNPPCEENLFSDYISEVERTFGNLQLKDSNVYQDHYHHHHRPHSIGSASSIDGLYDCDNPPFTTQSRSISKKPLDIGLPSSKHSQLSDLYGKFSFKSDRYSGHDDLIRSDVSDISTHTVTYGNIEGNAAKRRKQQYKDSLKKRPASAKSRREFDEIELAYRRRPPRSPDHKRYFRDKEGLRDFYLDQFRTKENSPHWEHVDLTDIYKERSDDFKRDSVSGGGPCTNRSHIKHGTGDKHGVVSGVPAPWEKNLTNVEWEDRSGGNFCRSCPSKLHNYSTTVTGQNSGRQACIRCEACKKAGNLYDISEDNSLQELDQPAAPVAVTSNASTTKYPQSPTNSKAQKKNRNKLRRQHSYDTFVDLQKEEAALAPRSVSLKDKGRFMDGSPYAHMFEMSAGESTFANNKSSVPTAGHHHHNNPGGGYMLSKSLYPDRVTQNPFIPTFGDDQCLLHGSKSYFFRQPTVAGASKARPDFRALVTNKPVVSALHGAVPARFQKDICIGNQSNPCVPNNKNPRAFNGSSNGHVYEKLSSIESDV
# Assay: whole-cell patch-clamp on HEK293 cells expressing GluN1/GluN2B NMDAR
# Type: cell-based
# Conditions: HEK293, 10 µM, −60 mV, ± SEM (n = 5–6), 100% = full inhibition; read-out: Relative inhibition (RI) of GluN1/GluN2B NMDAR
# Description: We tested the derivatives by the whole-cell patch-clamp method at a concentration of 10 μM under steady-state conditions in the presence of the saturating concentrations of NMDAR (co-)agonists (L-glutamate and glycine). […] Whole-cell patch-clamp recordings were performed using an Axopatch 200B amplifier (Molecular Devices, LLC., San Jose, CA, USA) at a holding membrane potential of −60 mV. HEK293 cells were co-transfected with DNA vectors encoding human versions of the GluN1-4a (GluN1) and GluN2B subunits and green fluorescent protein (GFP) in a 1:1:1 ratio using 0.9 μL PolyMag reagent (OZ Biosciences SAS, Marseille, France) in 50 μL Opti-MEM I [56, 57]. After 15 min on a magnetic plate, HEK293 cells were trypsinized and resuspended in Opti-MEM I medium containing 1% FBS, 2 mM MgCl2 and 3 mM kynurenic acid (to reduce cell death caused by activation of NMDARs). Electrophysiological measurements were performed 24–48 h after completion of transfection at room temperature. The extracellular recording solution (ECS) contained (in mM): 160 NaCl, 2.5 KCl, 10 HEPES, 10 D-glucose, 0.2 EDTA, and 0.7 CaCl2 (pH 7.3 with NaOH). […] A microprocessor-controlled rapid perfusion system with a time constant for solution exchange around the recorded cell of ~20 ms was used. Currents were low-pass filtered at 2 kHz using an eight-pole Bessel filter, digitized at 5 kHz, and recorded using the pCLAMP 10 program (Molecular Devices, LLC., San Jose, CA, USA). The co-agonist glycine (100 µM) was applied throughout the recording, and the agonist L-glutamate (1 mM) was used to elicit responses of GluN1/GluN2B receptors.
row,Structure (SMILES),inhibition at 10 µM
1,"C#CCN(C)c1nc(NCCCC)c2ccccc2n1 [I-6e, N4-butyl-N2-methyl-N2-(prop-2-yn-1-yl)quinazoline-2,4-diamine]",30.1 ± 3.13%
2,"C#CCN(C)c1nc(NC2CCCCC2)c2ccccc2n1 [I-6h, N4-cyclohexyl-N2-methyl-N2-(prop-2-yn-1-yl)quinazoline-2,4-diamine]",49.3 ± 1.16%
3,"C#CCN(C)c1nc(NC2CCCCC2)c2ccc(Cl)cc2n1 [II-6h, 7-chloro-N4-cyclohexyl-N2-methyl-N2-(prop-2-yn-1-yl)quinazoline-2,4-diamine]",63.5 ± 3.46%
4,"C#CCN(C)c1nc(N)c2cc(OC)ccc2n1 [III-6a, 6-methoxy-N2-methyl-N2-(prop-2-yn-1-yl)quinazoline-2,4-diamine]",18.1 ± 5.75%

# System: not listed separately
# Assay: PAMPA prediction of BBB permeability
# Type: in vitro ADME
# Conditions: not given
# Description: The assay validation was performed using standard compounds whose CNS status is experimentally known from in vivo conditions.
# PAMPA (the parallel artificial membrane-permeability assay) is a high-throughput screening tool applicable for prediction of the passive transport of potential drugs across the blood–brain barrier (BBB). In this study, it was used as a non-cell-based in vitro assay carried out in a coated 96-well membrane filter. The filter membrane of the donor plate was coated with PBL (Polar Brain Lipid, Avanti, USA) in dodecane (4 µL of 20 mg/mL PBL in dodecane) and the acceptor well was filled with 300 µL of PBS (pH 7.4; VA). The tested compounds were dissolved first in DMSO and subsequently diluted with PBS (pH 7.4) to final concentrations of 50–100 μM in the donor wells. […] About 300 µL of the donor solution was added to the donor wells (VD) and the donor filter plate was carefully put on the acceptor plate so that the coated membrane was “in touch” with both the donor solution and acceptor buffer. In principle, the test compound diffused from the donor well through the lipid membrane (Area = 0.28 cm^2) to the acceptor well. The concentration of the drug in both the donor and acceptor wells were assessed after 3, 4, 5, and 6 h of incubation in quadruplicate using the UV plate reader Spark (Tecan Group Ltd., Männedorf, Switzerland) at the maximum absorption wavelength of each compound. In addition, the solution of the theoretical compound concentration, simulating the equilibrium state established if the membrane were ideally permeable, was prepared and assessed as well.
row,Structure (SMILES),BBB penetration by PAMPA (in words)
1,"C#CCN(C)c1nc(NCCCC)c2ccccc2n1 [I-6e, N4-butyl-N2-methyl-N2-(prop-2-yn-1-yl)quinazoline-2,4-diamine]",high probability of crossing BBB via passive diffusion
2,"C#CCN(C)c1nc(NC2CCCCC2)c2ccccc2n1 [I-6h, N4-cyclohexyl-N2-methyl-N2-(prop-2-yn-1-yl)quinazoline-2,4-diamine]",high probability of crossing BBB via passive diffusion
3,"C#CCN(C)c1nc(NC2CCCCC2)c2ccc(Cl)cc2n1 [II-6h, 7-chloro-N4-cyclohexyl-N2-methyl-N2-(prop-2-yn-1-yl)quinazoline-2,4-diamine]",high probability of crossing BBB via passive diffusion
4,"C#CCN(C)c1nc(N)c2cc(OC)ccc2n1 [III-6a, 6-methoxy-N2-methyl-N2-(prop-2-yn-1-yl)quinazoline-2,4-diamine]",did not penetrate the artificial barrier

# Same assay, conditions: PAMPA class
row,Structure (SMILES),CNS (+/−)
1,"C#CCN(C)c1nc(NCCCC)c2ccccc2n1 [I-6e, N4-butyl-N2-methyl-N2-(prop-2-yn-1-yl)quinazoline-2,4-diamine]",CNS (+) (CNS (+) (high BBB permeation predicted): Pe (×10^−6 cm s^−1) > 4.0)
2,"C#CCN(C)c1nc(NC2CCCCC2)c2ccccc2n1 [I-6h, N4-cyclohexyl-N2-methyl-N2-(prop-2-yn-1-yl)quinazoline-2,4-diamine]",CNS (+) (CNS (+) (high BBB permeation predicted): Pe (×10^−6 cm s^−1) > 4.0)
3,"C#CCN(C)c1nc(NC2CCCCC2)c2ccc(Cl)cc2n1 [II-6h, 7-chloro-N4-cyclohexyl-N2-methyl-N2-(prop-2-yn-1-yl)quinazoline-2,4-diamine]",CNS (+) (CNS (+) (high BBB permeation predicted): Pe (×10^−6 cm s^−1) > 4.0)
4,"C#CCN(C)c1nc(N)c2cc(OC)ccc2n1 [III-6a, 6-methoxy-N2-methyl-N2-(prop-2-yn-1-yl)quinazoline-2,4-diamine]",CNS (−) (CNS (−) (low BBB permeation predicted): Pe (×10^−6 cm s^−1) < 2.0)

# Same assay, conditions: PAMPA, PBS pH 7.4
row,Structure (SMILES),Pe ± SEM
1,"C#CCN(C)c1nc(N)c2cc(OC)ccc2n1 [III-6a, 6-methoxy-N2-methyl-N2-(prop-2-yn-1-yl)quinazoline-2,4-diamine]",0 ×10⁻⁶ cm/s

# Same assay, conditions: PAMPA, PBS pH 7.4; read-out: Pe ± SEM
row,Structure (SMILES),Papp
1,"C#CCN(C)c1nc(NCCCC)c2ccccc2n1 [I-6e, N4-butyl-N2-methyl-N2-(prop-2-yn-1-yl)quinazoline-2,4-diamine]",7.37 ± 1.22 ×10⁻⁶ cm/s
2,"C#CCN(C)c1nc(NC2CCCCC2)c2ccccc2n1 [I-6h, N4-cyclohexyl-N2-methyl-N2-(prop-2-yn-1-yl)quinazoline-2,4-diamine]",5.61 ± 1.01 ×10⁻⁶ cm/s
3,"C#CCN(C)c1nc(NC2CCCCC2)c2ccc(Cl)cc2n1 [II-6h, 7-chloro-N4-cyclohexyl-N2-methyl-N2-(prop-2-yn-1-yl)quinazoline-2,4-diamine]",9.39 ± 1.17 ×10⁻⁶ cm/s

# System: differentiated SH-SY5Y cells
# Assay: MTT viability of differentiated SH-SY5Y
# Type: cell-based, human
# Conditions: concentration equal to IC50 from undifferentiated model, 24 h
# Description: Then, the differentiated SH-SY5Y cells were treated with concentrations corresponding to the IC50 values obtained from the cytotoxicity measurement using undifferentiated SH-SY5Y cells. Cells were exposed to a tested compound for 24 h. Then, the medium was replaced by a medium containing 10 μM of MTT and cells were allowed to produce formazan for another, approximately 3 h under surveillance. Thereafter, the medium was aspirated and purple crystals of MTT formazan were dissolved in 100 μL DMSO under shaking. Cell viability was assessed spectrophotometrically by the amount of formazan produced. Absorbance was measured at 570 nm with 650 nm reference wavelength on Spark (Tecan Group Ltd., Männedorf, Switzerland). The IC50 value was then calculated from the control-subtracted triplicates using non-linear regression (four parameters) of GraphPad Prism 9 software. Final IC50 and SEM values were obtained as a mean of three.
row,Structure (SMILES),effect on viability of differentiated SH-SY5Y (in words)
1,"C#CCN(C)c1nc(NCCCC)c2ccccc2n1 [I-6e, N4-butyl-N2-methyl-N2-(prop-2-yn-1-yl)quinazoline-2,4-diamine]",no difference from the undifferentiated model
2,"C#CCN(C)c1nc(NC2CCCCC2)c2ccccc2n1 [I-6h, N4-cyclohexyl-N2-methyl-N2-(prop-2-yn-1-yl)quinazoline-2,4-diamine]",no difference from the undifferentiated model
3,"C#CCN(C)c1nc(NC2CCCCC2)c2ccc(Cl)cc2n1 [II-6h, 7-chloro-N4-cyclohexyl-N2-methyl-N2-(prop-2-yn-1-yl)quinazoline-2,4-diamine]",did not exhibit any cytotoxic effects; also recorded: lost the cytotoxic effect
4,"C#CCN(C)c1nc(N)c2cc(OC)ccc2n1 [III-6a, 6-methoxy-N2-methyl-N2-(prop-2-yn-1-yl)quinazoline-2,4-diamine]",no difference from the undifferentiated model

# System: SH-SY5Y cells
# Assay: dehydrogenase activity, WST-1 test
# Type: cell-based, human
# Conditions: 10 µM, 24 h
# Description: Next, we tested the effects of the compounds on intracellular dehydrogenase activity and glutathione levels. […] To evaluate the effects of the compounds on cells, we measured total intracellular dehydrogenase activity as a marker of cellular viability and glutathione levels for evaluation of oxidative stress (Table 6).
# Dehydrogenase activity was evaluated by WST-1 test (Roche, Munich, Germany). The WST-1 test measures the activity of intra- and extra-mitochondrial dehydrogenases. […] The change of absorbance was measured by spectrophotometer at the wavelength of 440 nm using SPARK microplate reader (Tecan, Austria) while incubated at 37 °C. The dehydrogenase activity was expressed as the percentage of total cellular dehydrogenase activity relative to that in the control cells (control = 100%).
row,Structure (SMILES),change in dehydrogenase activity (in words)
1,"C#CCN(C)c1nc(NC2CCCCC2)c2ccc(Cl)cc2n1 [II-6h, 7-chloro-N4-cyclohexyl-N2-methyl-N2-(prop-2-yn-1-yl)quinazoline-2,4-diamine]",no significant changes
2,"C#CCN(C)c1nc(N)c2cc(OC)ccc2n1 [III-6a, 6-methoxy-N2-methyl-N2-(prop-2-yn-1-yl)quinazoline-2,4-diamine]",no significant changes

# Same assay, conditions: 100 µM, 6 h, mean ± SD
row,Structure (SMILES),Dehydrogenase Activity (% of Control)
1,"C#CCN(C)c1nc(NCCCC)c2ccccc2n1 [I-6e, N4-butyl-N2-methyl-N2-(prop-2-yn-1-yl)quinazoline-2,4-diamine]",44 ± 13 % of Control
2,"C#CCN(C)c1nc(NC2CCCCC2)c2ccccc2n1 [I-6h, N4-cyclohexyl-N2-methyl-N2-(prop-2-yn-1-yl)quinazoline-2,4-diamine]",62 ± 10 % of Control
3,"C#CCN(C)c1nc(NC2CCCCC2)c2ccc(Cl)cc2n1 [II-6h, 7-chloro-N4-cyclohexyl-N2-methyl-N2-(prop-2-yn-1-yl)quinazoline-2,4-diamine]",40 ± 3 % of Control
4,"C#CCN(C)c1nc(N)c2cc(OC)ccc2n1 [III-6a, 6-methoxy-N2-methyl-N2-(prop-2-yn-1-yl)quinazoline-2,4-diamine]",107 ± 8 % of Control

# Same assay, conditions: 100 µM, 24 h, mean ± SD
row,Structure (SMILES),Dehydrogenase Activity (% of Control)
1,"C#CCN(C)c1nc(NCCCC)c2ccccc2n1 [I-6e, N4-butyl-N2-methyl-N2-(prop-2-yn-1-yl)quinazoline-2,4-diamine]",49 ± 4 % of Control
2,"C#CCN(C)c1nc(NC2CCCCC2)c2ccccc2n1 [I-6h, N4-cyclohexyl-N2-methyl-N2-(prop-2-yn-1-yl)quinazoline-2,4-diamine]",49 ± 2 % of Control
3,"C#CCN(C)c1nc(NC2CCCCC2)c2ccc(Cl)cc2n1 [II-6h, 7-chloro-N4-cyclohexyl-N2-methyl-N2-(prop-2-yn-1-yl)quinazoline-2,4-diamine]",22 ± 7 % of Control
4,"C#CCN(C)c1nc(N)c2cc(OC)ccc2n1 [III-6a, 6-methoxy-N2-methyl-N2-(prop-2-yn-1-yl)quinazoline-2,4-diamine]",128 ± 4 % of Control
